The text below walks through data of patent publication US11517597B2, “Method for improving skin condition with postbiotic extract” (CHAMBIO CO., LTD., priority 2020, dated 2022).

Experiment [1] concerns Hs68 cells. Description: TGF-β content of Hs68 cells (ELISA). In kind it is cell-based, Human. The following applies: 24 hours. Here is the method: (§1) • 2. Human foreskin fibroblast cell line Hs68 was purchased from the Bioresource Collection and Research Center of the Food Industry Research and Development Institute (BCRC of FIRDI, Taiwan). Hs68 cells were grown in a 10-cm Petri dish containing Dulbecco's Modified Eagle's Medium (DMEM) (Thermo Fisher Scientific) supplemented with 10% fetal bovine serum (FBS). The Hs68 cells were cultivated in an incubator with culture conditions set at 37° C. and 5% CO2. Medium change was performed every two to three days. Cell passage was performed when the cultured cells reached 80%-90% of confluence. • 3.
General Procedures: • 1. Determination of transforming growth factor-β (TGF-β) content
The TGF-β content was determined using an enzyme-linked immunosorbent assay (ELISA) kit (Cat. No. 559119, BD Biosciences) in accordance with the manufacturer's instructions.
Hs68 cells were divided into 25 groups, including one control group, twelve comparative groups (i.e., comparative groups L-1 to L-6 and B-1 to B-6), and twelve experimental groups (i.e., experimental groups L-1 to L-6 and B-1 to B-6). Each group of the Hs68 cells was incubated in a respective well of a 96-well culture plate containing 200 μL of DMEM at 1×10^4 cells/well, followed by cultivation in an incubator (37° C., 5% CO2) for 24 hours. […] The cell culture of the control group received no treatment.
After cultivation in an incubator (37° C., 5% CO2) for 24 hours, the respective resultant cell culture was subjected to the determination of TGF-β content according to the method described in section 1 of “General Procedures”.
(§2) Hs68 cells were divided into 28 groups, including fourteen comparative groups (i.e., comparative groups 1 L to 7 L and 1H to 7H) and fourteen experimental groups (i.e., experimental groups 1 L to 7 L and 1B to 7B). Each group of the Hs68 cells was incubated in a respective well of a 96-well culture plate containing 200 μL of DMEM at 1×10^4 cells/well, followed by cultivation in an incubator (37° C., 5% CO2) for 24 hours.

Experiment [2] relates to Hs68 cells. Description: Proliferation of Hs68 cells (MTT, OD570 converted to cell number). In kind it is cell-based, Human. The following applies: 24 hours. Here is the method: as §1
Hs68 cells were divided into 3 groups, including one control group and two experimental groups (i.e., experimental groups L and B). Each group of the Hs68 cells was incubated in a respective well of a 96-well culture plate containing 200 μL of DMEM at 1×10^4 cells/well, followed by cultivation in an incubator (37° C., 5% CO2) for 24 hours. […] The cell culture of the control group received no treatment.
After cultivation in an incubator (37° C., 5% CO2) for 24 hours, the respective resultant cell culture was stained with 3-(4,5-Dimethylthiazol-2-yl)-2,5-diphenyltetrazolium bromide (MTT), followed by subjecting the stained cells to determination of absorbance at a wavelength of 570 nm by a spectrophotometer. The OD570 values obtained were subsequently converted to cell numbers based on a correlation curve previously prepared by plotting different known cell numbers of Hs68 cells versus their OD570 values.
as §2
After cultivation in an incubator (37° C., 5% CO2) for 24 hours, the cell number of each group was determined according to the method described in section C of this example. The fold increase of viable cells was calculated using the following Equation (II): C=D/E (II) where C=fold increase of viable cells • D=cell number of respective experimental group or comparative group • E=cell number of corresponding comparative group 1 L, 2 L, 3 L, 4 L, 5 L, 6 L, or 7 L

Setting [3] is: nutritional component only 100 mg/L.
Setting [4] is: nutritional component only 200 mg/L.
Where [5] appears, read: nutritional component only 100 mg/L (the reference group of Equation II).
The mark [6] stands for this setting: nutritional component only 200 mg/L, relative to 100 mg/L group.

Regarding `N[C@H]1C(O)O[C@H](CO)[C@@H](O)[C@@H]1O` (stereo partly drawn) [Glucosamine], the TGF-β content in the experiment with Hs68 cells [1] (setting [3]) was 51.1 pg/mL; with Hs68 cells [1] (setting [4]), 61.3 pg/mL. Besides, the “Fold increase of viable Cells” value in the experiment on Hs68 cells [2] (setting [5]) came out at 1.0; in the experiment with Hs68 cells [2] (setting [6]), 1.1.

As for Chondroitin, the TGF-β content with Hs68 cells [1] (setting [3]) turned out to be 120.5 pg/mL; in the experiment on Hs68 cells [1] (setting [4]), 128.8 pg/mL. Besides, the “Fold increase of viable Cells” value turned out to be 1.0 in the experiment on Hs68 cells [2] (setting [5]) and 1.1 with Hs68 cells [2] (setting [6]).

As to `O=C1O[C@H]([C@@H](O)CO)C(O)=C1O` [Vitamin C], the figures for the TGF-β content in the experiment with Hs68 cells [1] (setting [3]) and with Hs68 cells [1] (setting [4]) were 52.2 pg/mL and 63.1 pg/mL, respectively. Besides, the “Fold increase of viable Cells” value in the experiment with Hs68 cells [2] (setting [5]) is reported as 1.0; with Hs68 cells [2] (setting [6]), 1.1.
